In US8383629B2, “Inhibitors of 11β-hydroxysteroid dehydrogenase type 1” (Vitae Pharmaceuticals, Inc., priority 2008, dated 2013):

Biological target: T1, human 11β-HSD1 (Homo sapiens, UniProt P28845)
T1 construct: expressed in transfected cells; host or cells: CHO cells (microsomes)
Experiment: Inhibition of microsomal preparation of 11β-HSD1 (SPA, Biological Test Example 1)
Assay type: biochemical
Conditions: for inhibition at 0.111 µM: 111 nM; for IC50: microsomes from CHO cells overexpressing human 11β-HSD1, read-out: IC50 Range; for inhibition at 0.1 µM: 100 nM
Description: The inhibition of microsomal preparation of 11β-HSD1 by compounds of the invention was measured essentially as previously described (K. Solly, S. S. Mundt, H. J. Zokian, G. J. Ding, A. Hermanowski-Vosatka, B. Strulovici, and W. Zheng, High-Throughput Screening of 11-Beta-Hydroxysteroid Dehydrogenase Type 1 in Scintillation Proximity Assay Format. Assay Drug Dev Technol 3 (2005) 377-384). All reactions were carried out at rt in 96 well clear flexible PET Microbeta plates (PerkinElmer). The assay begins by dispensing 49 μl of substrate solution (50 mM HEPES, pH 7.4, 100 mM KCl, 5 mM NaCl, 2 mM MgCl2, 2 mM NADPH and 160 nM [^3H]cortisone (1 Ci/mmol)) and mixing in 1 μL of the test compounds in DMSO previously diluted in half-log increments (8 points) starting at 0.1 mM. After a 10 minute pre-incubation, 50 μL of enzyme solution containing microsomes isolated from CHO cells overexpressing human 11β-HSD1 (10-20 μg/ml of total protein) was added, and the plates were incubated for 90 minutes at rt. The reaction was stopped by adding 50 μl of the SPA beads suspension containing 10 μM 18β-glycyrrhetinic acid, 5 mg/ml protein A coated YSi SPA beads (GE Healthcare) and 3.3 μg/ml of anti-cortisol antibody (East Coast Biologics) in Superblock buffer (Bio-Rad). The plates were shaken for 120 minutes at rt, and the SPA signal corresponding to [^3H]cortisol was measured on a Microbeta plate reader.

T1 sequence (P28845 whole entry): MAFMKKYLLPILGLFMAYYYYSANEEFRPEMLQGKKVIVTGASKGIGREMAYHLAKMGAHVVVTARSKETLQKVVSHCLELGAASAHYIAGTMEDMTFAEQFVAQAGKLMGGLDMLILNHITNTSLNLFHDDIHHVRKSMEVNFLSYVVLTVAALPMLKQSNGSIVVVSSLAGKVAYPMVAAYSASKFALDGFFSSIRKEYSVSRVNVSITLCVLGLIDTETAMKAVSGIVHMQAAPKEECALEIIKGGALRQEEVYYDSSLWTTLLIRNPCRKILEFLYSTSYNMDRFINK

| SMILES | inhibition at 0.111 µM [%] | IC50 [nM] | inhibition at 0.1 µM [%] |
| --- | --- | --- | --- |
| COc1ccc2c(c1)CCNC21CCN(C(=O)/C=C/c2ccccc2C(F)(F)F)CC1 [EXAMPLE 30, (E)-1-(6-methoxy-3,4-dihydro-2H-spiro[isoquinoline-1,4′-piperidine]-1′-yl)-3-(2-(trifluoromethyl)phenyl)prop-2-en-1-one] | 94.6 | < 100 | 90.3 |
| CN1C(=O)C2(CCN(C(=O)/C=C/c3ccccc3C(F)(F)F)CC2)c2ccccc21 [EXAMPLE 31, (E)-1-methyl-1′-(3-(2-(trifluoromethyl)phenyl)acryloyl)spiro[indoline-3,4′-piperidin]-2-one] | – | < 100 | 99.9 |
| COC(=O)c1ccc2c(c1)C1(CCN(C(=O)/C=C/c3ccccc3C(F)(F)F)CC1)C(=O)N2C [EXAMPLE 32, (E)-methyl 1-methyl-2-oxo-1′-(3-(2-(trifluoromethyl)phenyl)acryloyl)spiro[indoline-3,4′-piperidine]-5-carboxylate] | 83.4 | < 100 | – |
| CN1C(=O)C2(CCN(C(=O)/C=C/c3ccccc3C(F)(F)F)CC2)c2cc(C(=O)O)ccc21 [EXAMPLE 33, (E)-1-methyl-2-oxo-1′-(3-(2-(trifluoromethyl)phenyl)acryloyl)spiro[indoline-3,4′-piperidine]-5-carboxylic acid] | 31.5 | 100 to 1000 | – |
| CN(C)C(=O)c1ccc2c(c1)C1(CCN(C(=O)/C=C/c3ccccc3C(F)(F)F)CC1)C(=O)N2C [EXAMPLE 34, (E)-N,N,1-trimethyl-2-oxo-1′-(3-(2-(trifluoromethyl)phenyl)acryloyl)spiro[indoline-3,4′-piperidine]-5-carboxamide] | 38.2 | 100 to 1000 | – |
| CN1C(=O)C2(CCN(C(=O)/C=C/c3ccccc3C(F)(F)F)CC2)c2cc(C(N)=O)ccc21 [EXAMPLE 35, (E)-1-methyl-2-oxo-1′-(3-(2-(trifluoromethyl)phenyl)acryloyl)spiro[indoline-3,4′-piperidine]-5-carboxamide] | 41.4 | 100 to 1000 | – |
| CN1C(=O)C2(CCN(C(=O)/C=C/c3ccccc3C(F)(F)F)CC2)c2cc(C(=O)NCCO)ccc21 [EXAMPLE 36, (E)-N-(2-hydroxyethyl)-1-methyl-2-oxo-1′-(3-(2-(trifluoromethyl)phenyl)acryloyl)spiro[indoline-3,4′-piperidine]-5-carboxamide] | 0.6 | 100 to 1000 | – |
| CN1CCN(C(=O)c2ccc3c(c2)C2(CCN(C(=O)/C=C/c4ccccc4C(F)(F)F)CC2)C(=O)N3C)CC1 [EXAMPLE 37, (E)-1-methyl-5-(4-methylpiperazine-1-carbonyl)-1′-(3-(2-(trifluoromethyl)phenyl)acryloyl)spiro[indoline-3,4′-piperidin]-2-one] | 7.1 | 100 to 1000 | – |
| CNC(=O)c1ccc2c(c1)C1(CCN(C(=O)/C=C/c3ccccc3C(F)(F)F)CC1)C(=O)N2C [EXAMPLE 38, (E)-N,1-dimethyl-2-oxo-1′-(3-(2-(trifluoromethyl)phenyl)acryloyl)spiro[indoline-3,4′-piperidine]-5-carboxamide] | 21.3 | 100 to 1000 | – |
| CN1C(=O)C2(CCN(C(=O)/C=C/c3ccccc3C(F)(F)F)CC2)c2cc(C#N)ccc21 [EXAMPLE 39, (E)-1-methyl-2-oxo-1′-(3-(2-(trifluoromethyl)phenyl)acryloyl)spiro[indoline-3,4′-piperidine]-5-carbonitrile] | 64.8 | < 100 | – |
| CCN1C(=O)C2(CCN(C(=O)/C=C/c3ccccc3C(F)(F)F)CC2)c2cc(C(=O)OC)ccc21 [EXAMPLE 40, (E)-methyl 1-ethyl-2-oxo-1′-(3-(2-(trifluoromethyl)phenyl)acryloyl)spiro[indoline-3,4′-piperidine]-5-carboxylate] | 71.2 | < 100 | – |
| O=C(/C=C/c1ccccc1C(F)(F)F)N1CCC2(CC1)C(=O)Nc1ccc(F)cc12 [EXAMPLE 41, (E)-5-fluoro-1′-(3-(2-(trifluoromethyl)phenyl)acryloyl)spiro[indoline-3,4′-piperidin]-2-one] | – | < 100 | 91.2 |
| O=C1Cc2ccccc2C2(CCN(C(=O)/C=C/c3ccccc3C(F)(F)F)CC2)N1 [EXAMPLE 42, (E)-1′-(3-(2-(trifluoromethyl)phenyl)acryloyl)-2H-spiro[isoquinoline-1,4′-piperidin]-3(4H)-one] | 79.3 | < 100 | – |

Other lines, results leading:

| inhibition at 0.111 µM [%] | IC50 [nM] | inhibition at 0.1 µM [%] | SMILES |
| --- | --- | --- | --- |
| 87.4 | < 100 | – | O=C(/C=C/c1ccccc1C(F)(F)F)N1CCC2(CC1)CNCc1ccccc12 [EXAMPLE 21, (E)-1-(2,3-dihydro-1H-spiro[isoquinoline-4,4′-piperidine]-1′-yl)-3-(2-(trifluoromethyl)phenyl)prop-2-en-1-one] |
| 95.3 | < 100 | – | CS(=O)(=O)N1Cc2ccccc2C2(CCN(C(=O)/C=C/c3ccccc3C(F)(F)F)CC2)C1 [EXAMPLE 22, (E)-1-(2-(methylsulfonyl)-2,3-dihydro-1H-spiro[isoquinoline-4,4′-piperidine]-1′-yl)-3-(2-(trifluoromethyl)phenyl)prop-2-en-1-one] |
| 94.9 | < 100 | – | CC(=O)N1Cc2ccccc2C2(CCN(C(=O)/C=C/c3ccccc3C(F)(F)F)CC2)C1 [EXAMPLE 23, (E)-1-(2-acetyl-2,3-dihydro-1H-spiro[isoquinoline-4,4′-piperidine]-1′-yl)-3-(2-(trifluoromethyl)phenyl)prop-2-en-1-one] |
| 82.3 | < 100 | – | CN1C(=O)c2ccccc2C12CCN(C(=O)/C=C/c1ccccc1C(F)(F)F)CC2 [EXAMPLE 24, (E)-2-methyl-1′-(3-(2-(trifluoromethyl)phenyl)acryloyl)spiro[isoindoline-1,4′-piperidin]-3-one] |
| 95.3 | < 100 | 95.5 | CN1C(=O)c2cccc(Cl)c2C12CCN(C(=O)/C=C/c1ccccc1C(F)(F)F)CC2 [EXAMPLE 25, (E)-7-chloro-2-methyl-1′-(3-(2-(trifluoromethyl)phenyl)acryloyl)spiro[isoindoline-1,4′-piperidin]-3-one] |
| 79 | < 100 | – | CN1C(=O)c2cccc(Cl)c2C12CCN(C(=O)/C=C/c1c(Cl)cccc1Cl)CC2 [EXAMPLE 26, (E)-7-chloro-1′-(3-(2,6-dichlorophenyl)acryloyl)-2-methylspiro[isoindoline-1,4′-piperidin]-3-one] |
| 89.8 | < 100 | – | O=C1NC2(CCN(C(=O)/C=C/c3ccccc3C(F)(F)F)CC2)c2c(Cl)cccc21 [EXAMPLE 27, (E)-7-chloro-1′-(3-(2-(trifluoromethyl)phenyl)acryloyl)spiro[isoindoline-1,4′-piperidin]-3-one] |
| 92.7 | < 100 | – | O=C1NC2(CCN(C(=O)/C=C/c3ccccc3C(F)(F)F)CC2)c2c(Br)cccc21 [EXAMPLE 28, (E)-7-bromo-1′-(3-(2-(trifluoromethyl)phenyl)acryloyl)spiro[isoindoline-1,4′-piperidin]-3-one] |
| 94.2 | < 100 | – | O=C1NC2(CCN(C(=O)/C=C/c3ccccc3C(F)(F)F)CC2)c2c(Cl)cc(Cl)cc21 [EXAMPLE 29, (E)-5,7-dichloro-1′-(3-(2-(trifluoromethyl)phenyl)acryloyl)spiro[isoindoline-1,4′-piperidin]-3-one] |
